According to US20130123287A1, “CONTROL AGENT FOR SOFT ROT AND CONTROL METHOD FOR THE SAME” (ISHIHARA SANGYO KAISHA, LTD., priority 2010, published 2013):

Assays:
[1] = test system: bacteria causing the soft rot (Erwinia carotovora); assay: Inhibition test of growth of bacteria causing soft rot, Reference Test Example 3; type: cell-based; conditions: for formed colonies (growth state), grade: PSA medium, 27 degrees Celsius, 2 days
Description: (§1) Inhibition test of growth of bacteria causing soft rot of potato An inhibition test of the growth of bacteria causing the soft rot was done, when a control agent was directly applied to the bacteria causing the soft rot. A given volume of each pesticide of triflumizol (TRIFUMIN WP [trade name] manufactured by Nippon Soda Co., Ltd.), chlorothalonil (Daconil 1000 [trade name], manufactured by Sumitomo Chemical Company, Limited) and streptomycin (Mycin Wettable powder [trade name] manufactured by Hokko Chemical Industry Co., Ltd.) was added together with a suspension of the bacteria causing the soft rot (Erwinia carotovora) to a preliminarily dissolved PSA culture medium (55 degrees Celsius) for subsequent thorough agitation, which was then spread on a plate for culturing at 27 degrees Celsius for 2 days, to examine the growth state. Subsequently, the formed colonies were examined according to the following three grades. • +: at the same level as the level of non-treated lot. Plus or minus: apparently less than the colonies of the non-treated lot. • −: almost no colonies observed.

[2] = test system: bacteria causing the soft rot (Erwinia carotovora); assay: Inhibition test of growth of bacteria causing soft rot, Reference Test Example 2; type: cell-based; conditions: for formed colonies (growth state), grade: PSA medium, 27 degrees Celsius, 2 days
Description: as §1, with “azoxystrobin (Amistar-20 FLOWABLE [trade name], manufactured by Syngenta Japan K.K.), penthiopyrad (GAIA WG [trade name], manufactured by Mitsui Chemicals Agro, Inc.), flusulfamide (SCABLOCK SC” for “triflumizol (TRIFUMIN WP”, “Mitsui Chemicals Agro, Inc.),” for “Nippon Soda Co., Ltd.), chlorothalonil (Daconil 1000 [trade name], manufactured by Sumitomo Chemical Company, Limited)”, “lot.” for “lot. Plus or minus: apparently less than the colonies of the non-treated lot. • −: almost no colonies observed.”
Plus or minus: apparently less than the colonies of the non-treated lot. • −: almost no colonies observed.

[3] = test system: soft rot of Chinese cabbage; assay: Test for controlling soft rot of Chinese cabbage, Example 1 / Comparative Example 1 (field, cultivar Muso); type: in vivo; conditions: 1/1000 dilution, 300 L/10a sprayed three times on stems and leaves, 54 days after start
Protocol: 200 g/l Azoxystrobin (Amistar 20 FLOWABLE [trade name], manufactured by Syngenta Japan K.K.) was adjusted to 250 g ai/10a (0.25 g/m^2, 1250 ml Product/10a) as the amount of the active ingredient and to 150 L/10a as the volume of diluent water.
100 g/l Cyazofamid (RANMAN FLOWABLE [trade name], manufactured by Ishihara Sangyo Kaisha, Ltd.) was adjusted to 250 g ai/10a (0.25 g/m^2, 2500 ml Product/10a) as the amount of the active ingredient and to 150 L/10a as the volume of diluent water.
177 g/l Amisulbrom (LEIMAY FLOWABLE [trade name], manufactured by Nissan Chemical Industries, Ltd.) was adjusted individually to 250 g ai/10a (0.25 g/m^2, 1412 ml Product/10a) as the amount of the active ingredient and to 150 L/10a as the volume of diluent water.
After spreading an agricultural mulch-sheet and opening planting holes (diameter of about 9 cm) for permanent planting through the mulch-sheet, the spray solutions prepared as described above were sprayed onto the planting holes such that the amount of treated active ingredient of each spray solution was 0.25 g/m^2 (150 L per 10a), followed by air-drying; subsequently, seedlings of Chinese cabbage (cultivar: Muso) grown for 4 weeks in cell mold trays (128 holes/nursery box) were planted such that 30 seedlings were planted in each test lot having an area of 6 m^2 with two replications.
Preparation was performed by diluting streptomycin (Mycin 20 wettable powder solution [under the trade name] manufactured by Hokko Chemical Industry Co., Ltd.) with water to 1/1000.
In a field spread with the agricultural mulch-sheet, Chinese cabbage seedlings (cultivar: Muso) grown by the same method as in Example 1 were planted by the same method as in Example 1, for spraying the spray solution of streptomycin prepared above in (1) (at each spray volume of 300 L/10a) three times (13 days, 20 days and 27 days after the planting of the seedlings) on the stems and leaves.
54 days after the start of the tests, all the plants in each lot were examined about the severity level of the disease; according to the following equations, the ratio of the plants with the onset of the disease, the frequency of the disease, and the disease control value were calculated to determine and rank the effects at A to D levels. Because soft rot is a disease with damages hardly controlled, herein, even a chemical at the level C determined by the tests of the effects can practically be used.
Ratio of the plants with the onset of the disease=(Number of plants with the onset of the disease/number of plants examined)*100
Frequency of the disease=[sigma(number of plants with the onset of the disease at each severity level*index of the onset of the disease)/(plants examined*4)]*100 […]

[4] = test system: bacteria causing the soft rot (Erwinia carotovora); assay: Inhibition test of growth of bacteria causing soft rot, Reference Test Example 4; type: cell-based; conditions: for formed colonies (growth state), grade: PSA medium, 27 degrees Celsius, 2 days
Description: as §1, with “An” for “Inhibition test of growth of bacteria causing soft rot of potato An”, “kresoxim-methyl (STROBY DF [trade name] manufactured by BASF), thiophanate methyl (Topsin M WP [trade name], manufactured by Nippon Soda Co., Ltd), boscalid (Cantus DF [trade name] manufactured by BASF), procymidone (Sumilex” for “triflumizol (TRIFUMIN”, “by” for “by Nippon Soda Co., Ltd.), chlorothalonil (Daconil 1000 [trade name], manufactured by”, “Agro Co., Ltd.)” for “Company, Limited)”

[5] = active ingredient concentration of 1 ppm

[H]/N=C(/N)N[C@H]1[C@H](O)[C@@H](O)[C@H](O[C@@H]2O[C@@H](C)[C@](O)(C=O)[C@H]2O[C@@H]2O[C@@H](CO)[C@H](O)[C@@H](O)[C@@H]2NC)[C@@H](N/C(N)=N\[H])[C@@H]1O [Streptomycin]
formed colonies (growth state), grade ([1]; 1 ppm active ingredient): +, ±
formed colonies (growth state), grade ([1]; 10 ppm active ingredient): −, −
direct antibacterial activity against Erwinia carotovora (in words) ([1]; active ingredient concentration of 10 ppm): exerted a direct antibacterial activity
formed colonies (growth state), grade ([2]; 1 ppm active ingredient): −, −
formed colonies (growth state), grade ([2]; 10 ppm active ingredient): −, −
direct antibacterial activity against Erwinia carotovora (in words) [2, 5]: exerted a direct antibacterial activity
Determination of effect [3]: D (D: Poorly effective (20 or smaller disease control value))
formed colonies (growth state), grade ([4]; 1 ppm active ingredient): −, −
formed colonies (growth state), grade ([4]; 10 ppm active ingredient): −, −
direct antibacterial activity against Erwinia carotovora (in words) [4, 5]: exerted a direct antibacterial activity
